{"source": "patent US4146613A", "about": "“Oral anti-diabetic drug composition” (THERA Gesellschaft fur Patentverwertung mbH, priority 1976, dated 1979)", "origin": "cited, not measured here", "system": "blood sugar"}
{"substance": "kallikrein", "values": [{"measurement": "persistence of blood sugar lowering effect", "setting": "after administering for several days, for example after three days", "result": "the effect would diminish or disappear"}, {"measurement": "blood sugar lowering", "setting": "also if applied orally, Frey et al 1932", "result": "lower slightly the blood sugar"}]}
